Reference: article PMC10987541, “Characterization of a putative orexin receptor in Ciona intestinalis sheds light on the evolution of the orexin/hypocretin system in chordates” (Scientific Reports, 2024)
No end group written: not given here.

Tests used:
[1] = test system: CiOX; test: Inhibition of human orexin peptide-mediated Ca2+ responses in CiOX-expressing cells; assay type: cell-based, Ciona intestinalis; conditions: agonist orexin-A and -B 1 µM; inhibitor 1 µM added 30 min before; mean ± S.E.M., N = 3-4
Experimental: Figure 7 The sensitivity of the human endogenous orexin peptide (1 µM) -mediated Ca^2+ responses to inhibitors (1 µM) in CiOX-expressing cells. The responses were normalized to the basal + inhibitor (0%) and the control agonist peptide response (in the absence of inhibitor; 100%) separately for each independent experiment before averaging. Data presented as mean ± S.E.M. N = 3–4. The significances are given in relation to the agonist control.
Intracellular calcium elevation is the apparent response upon orexin receptor activation in many cell types. The calcium elevation assay was conducted as previously described. Cells, 1 × 10^5 per well, were plated on polyethyleneimine (25 μg/mL, 1 h, 37 °C)-coated black, clear-bottom, half-area 96-well plates (Greiner). After 24 h, 100 ng/mL doxycycline was added onto the cells and incubated for another 24 h before loading the cells with FLIPR Calcium 5 Assay Kit (Molecular Devices, Sunnyvale, CA, USA) dissolved in and diluted with HBM and supplemented as described above. Cells were incubated for 1 h with the loading dye, before running the assay in FlexStation 3 fluorescence plate reader (Molecular Devices). Inhibitors were added manually at the midpoint of the probe incubation (30 min). Intracellular Ca^2+ levels were measured as fluorescent changes for 150 s (of which 30 s baseline prior to stimulation) with excitation at 485 nm, emission at 525 nm (recording every 1.3 s) at 37 °C.
The data were normalized in each experiment to the control response and then averaged between experiments by calculation of mean ± S.E.M. The N denotes the number of independent experiments and was always at least 3. Paired two-tailed t-test was used for comparison. Significances were as follows: * P < 0.05, ** P < 0.01, *** P < 0.001.

[2] = target: T1, CiOX (Ciona intestinalis, UniProt F6YII5); assay type: cell-based; conditions: CiOX-eGFP-expressing Flp-In T-REx 293 cells
T1 sequence (F6YII5 1-372): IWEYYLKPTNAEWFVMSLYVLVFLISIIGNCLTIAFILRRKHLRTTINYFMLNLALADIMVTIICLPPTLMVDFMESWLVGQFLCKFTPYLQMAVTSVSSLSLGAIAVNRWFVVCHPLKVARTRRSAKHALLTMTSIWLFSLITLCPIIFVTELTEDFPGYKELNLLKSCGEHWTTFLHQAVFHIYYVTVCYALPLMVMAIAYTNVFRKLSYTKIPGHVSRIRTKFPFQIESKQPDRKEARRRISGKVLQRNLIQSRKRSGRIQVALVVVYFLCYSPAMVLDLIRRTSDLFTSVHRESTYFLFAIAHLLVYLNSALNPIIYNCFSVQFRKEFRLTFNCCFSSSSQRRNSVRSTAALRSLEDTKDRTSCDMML
Experimental: (§3) The Flp-In T-REx 293 human cell line (Thermofisher Scientific, Waltham, MA, USA), based on HEK293 cells, was cultured at 37 °C in 5% CO2 in an air‐ventilated humidified incubator according to manufacturer’s protocol, in high glucose Dulbecco’s Modified Eagle Medium (Biowest, Nuaillé, France) supplemented with 10% FBS, 1% Glutamax (Gibco), 10 mM HEPES (VWR LifeScience, Radnor, PA, USA), 100 U/mL penicillin G (Sigma Chemical Co., St. Louis, MO, USA), 80 U/mL streptomycin (Sigma), blasticidin (15 µg/mL) (InvivoGen, San Diego, CA, USA). The host cell line was maintained with zeocin (100 µg/mL) (InvitroGen, Carlsbad, CA, USA) and the transfected cell lines with hygromycin B (100 µg/mL) (InvitroGen). The experimental medium, the HEPES-buffered medium, (HBM: 137 mM NaCl, 5 mM KCl, 1.2 mM MgCl2, 0.44 mM KH2PO4, 4.2 mM NaHCO3, 1 mM CaCl2, 10 mM glucose, 20 mM HEPES, adjusted to pH 7.4 with NaOH), was used in all laboratory experiments. For the calcium elevation assay, HBM was supplemented with 1 mM probenecid [4-(dipropylsulfamoyl)benzoic acid] (Sigma) and 0.2% lipid-free bovine serum album.
(§4) Calcium measurements were performed in triplicate or quadruplicate. […] Non-linear curve-fitting were conducted with Prism 5 (GraphPad Software Inc., La Jolla, CA, USA) using the following equation: Y=basal+responsemax-basal/1+10^logEC50-X

[3] = test system: wild-type Flp-In T-REx 293 cells; test: Calcium elevation assay in wild-type Flp-In T-REx 293 cells; assay type: cell-based, human; conditions: for Ca2+ elevation in wild-type cells: wild-type Flp-In T-REx 293 cells, concentration-response, N = 3
Experimental: as §3, §4

[4] = target: Ciona intestinalis putative orexin receptor fused to eGFP (Ciona intestinalis)
[5] = test system: allatotropin receptor of Tribolium castaneum; conditions: cited from earlier work
Excerpt: The data presented in this study strongly support the notion that this orphan C. intestinalis receptor, here called CiOX, is an orexin-like receptor. Despite the sequence divergence, the (proposed) binding cavity of hOX2 and CiOX are highly similar.

[6] = test system: CiOX; assay type: cell-based; conditions: 100 µM
Experimental: as §3, §4

[7] = target: T1, CiOX; test: Binding of TAMRA-orexin-A (fluorescence microscopy) in CiOX-eGFP-expressing cells; conditions: 30 nM
Experimental: (§1) We have previously observed that the N-terminus of orexin-A can tolerate additions without apparent loss of activity on orexin receptors (Kukkonen, unpublished) and it has been reported that fluorescently labelled orexin-A can be used as probe for hOX1/2[56].
(§2) The cells were seeded on polyethyleneimine-coated 25 mm circular glass coverslips (Menzel-Gläser, Braunschweig, Germany). Twenty-four hours after seeding, cells were treated with doxycycline (100 ng/mL) and incubated for another 24 h. Then, the coverslip was washed once with HBM, before mounting in the microfluorometric experiment chamber. The imaging system, composed of the Sutter Lambda DG-4 xenon light source/filter shifter (Sutter Instrument Company, Novato, CA, USA), Nikon TE2000 epifluorescence microscope (Nikon, Tokyo, Japan), Nikon Apo TIRF 60×/1.49 oil immersion objective and Andor iXon 885 electron-multiplying charge-coupled device camera (Oxford Instruments, Abingdon, Oxfordshire, UK), was under the control of the Nikon NIS Elements AR software. Images were alternately acquired at 480/30 nm excitation/510 nm dichroic mirror/535/40 nm emission for eGFP fluorescence and at 540/25 nm excitation/565 nm dichroic mirror/605/55 nm emission for TAMRA fluorescence. A pair of images was acquired once per minute or once per every five minutes depending on the incubation time; i.e., for a longer incubation 5 min was used to avoid potential bleaching. All the additions were made by direct pipetting into the chamber. Experiments were carried out at room temperature. 30 nM TAMRA-orexin-A was used.

[8] = test system: hOX1; test: Binding of TAMRA-orexin-A (fluorescence microscopy) in hOX1-eGFP-expressing cells; design: species or system human; conditions: 30 nM
Experimental: as §1
as §2, with “A pair of images was acquired once per minute or once per every five minutes depending on the incubation time; i.e., for a longer incubation 5 min was used to avoid potential bleaching. All the additions were made by direct pipetting into the chamber. Experiments were carried out at room temperature. 30 nM TAMRA-orexin-A was used.” left out

[9] = test system: wild-type Flp-In T-REx 293 cells; test: Binding of TAMRA-orexin-A (fluorescence microscopy) in wild-type Flp-In T-REx 293 cells; design: species or system human; conditions: 30 nM; 10-minute incubation
Experimental: as §1
as §2, with “A pair of images was acquired once per minute or once per every five minutes depending on the incubation time; i.e., for a longer incubation 5 min was used to avoid potential bleaching. All the additions were made by direct pipetting into the chamber. Experiments were carried out at room temperature. 30 nM TAMRA-orexin-A was used.” left out

[10] = room temperature, red fluorescence

With “[(1R)-1-[(3S,6S,9S,12S,18R,21S,22R)-21-acetamido-18-benzyl-3-[(1R)-1-methoxyethyl]-4,9,10,12,16-pentamethyl-15-methylidene-2,5,8,11,14,17,20-heptaoxo-22-propan-2-yl-1,19-dioxa-4,7,10,13,16-pentazacyclodocos-6-yl]-2-methylpropyl] (2S,3R)-3-hydroxy-4-methyl-2-(propanoylamino)pentanoate [UBO-QIC]” as the compound, how does the “Inhibition of Ca2+ responses to CiOX stimulation with orexin-A and -B” value (from here on “Inhibition of Ca2+ responses”) [1] read?
The value was “nearly fully inhibited”.

For `COc1ccc(-c2cccc(C(=O)N(C)C)c2)cc1S(=O)(=O)Nc1cccc(NCCNC(=O)c2cccc(C)c2)c1` [Nag 26, N-[2-[3-[[5-[3-(dimethylcarbamoyl)phenyl]-2-methoxyphenyl]sulfonylamino]anilino]ethyl]-3-methylbenzamide], which “Ca2+ elevation in CiOX receptor-expressing cells” value [2] is on record?
The value was “induced no Ca^2+ elevation”.

What about the “Ca2+ elevation in wild-type cells” value [3] of the same compound?
The value was “induced no Ca^2+ elevation”.

For `Cc1nc2ccc(NC(=O)Nc3ccnc4cccnc34)cc2o1` [SB-334867], which “Inhibition of Ca2+ responses” value [1] is on record?
The value was “much weaker effect”.

Which results are given for “orexin-A15–33: The 19-amino acid-long C-terminal fragment of orexin-A (RLYELLHGAGNHAAGILTL; ends and bridges not checked)”?
EC50 of Ca2+ elevation ([2]; doxycycline 100 ng/mL 24 h, 37 °C, mean ± S.E.M., N = 3): no saturation was reached; Ca2+ elevation in wild-type cells [3]: weakly elevated Ca^2+

Which EC50 of the Ca2+ elevation in CiOX-eGFP-expressing Flp-In T-REx 293 cells (CiOX-specific response, wild-type response subtracted) [4] does the source give for human orexin-A (peptide) here?
The EC50 of the Ca2+ elevation in CiOX-eGFP-expressing Flp-In T-REx 293 cells (CiOX-specific response, wild-type response subtracted) was 225 nM.

Which “Inhibition of Ca2+ responses” value [1] does the source give for `CNC(=O)[C@@H](c1ccccc1)N1CCc2cc(OC)c(OC)cc2[C@@H]1CCc1ccc(C(F)(F)F)cc1` [almorexant, (2R)-2-[(1S)-6,7-dimethoxy-1-[2-[4-(trifluoromethyl)phenyl]ethyl]-3,4-dihydro-1H-isoquinolin-2-yl]-N-methyl-2-phenylacetamide] here?
Its value is “nearly fully blocked the response”.

What about the “Inhibition of the allatotropin receptor of Tribolium castaneum” value [5] of the same compound?
Its value is “not inhibited”.

For `Nc1ncnc2c1ncn2[C@@H]1O[C@H](COP(=O)(O)OP(=O)(O)OP(=O)(O)O)[C@@H](O)[C@H]1O` [ATP], which “Ca2+ response to positive control in CiOX-expressing cells” value [6] is on record?
The value was “robust Ca^2+ response”.

And the “Ca2+ response to positive control in wild-type cells” value ([3]; 100 µM)?
The value was “robust Ca^2+ response”.

What does the source list for “TAMRA-orexin-A: 5-/6-carboxytetramethylrhodamine (TAMRA)-labelled human orexin-A, custom synthesis (QPLPDCCRQKTCSCRLYELLHGAGNHAAGILTL; ends and bridges not checked; also: TAMRA label, place not given here; UniProt O43612 34-66, looked up)”?
Internalization (intracellular red fluorescence) in CiOX receptor-expressing cells [7]: did not observe this; Time for which the bound fluorescence intensity remained stable in CiOX-eGFP-expressing cells ([7]; room temperature): at least 30 min; Binding to the plasma membranes of CiOX-eGFP-expressing cells [7, 10]: bound to the plasma membranes of the CiOX receptor-expressing cells; Internalization (intracellular red fluorescence) in hOX1 receptor-expressing cells [8]: intracellular red fluorescence suggesting internalization; Binding to the plasma membranes of hOX1-eGFP-expressing cells [8, 10]: bound to the plasma membranes of OX1 cells quickly after the addition; Binding to wild-type Flp-In T-REx 293 cells [9]: did not bind

Which results are given for “M. sexta allatotropin: Manduca sexta allatotropin from Bachem (GFKNVEMMTARGF)”?
Ca2+ elevation in CiOX receptor-expressing cells [2]: induced no Ca^2+ elevation; Ca2+ elevation in wild-type cells [3]: induced no Ca^2+ elevation

Which “Inhibition of Ca2+ responses” value [1] does the source give for `Cn1c(SCC(=O)N2CCC[C@H]2C(=O)Nc2ccccc2-c2ccccc2)nc2ccccc21` [TCS 1102, (2S)-1-[2-(1-methylbenzimidazol-2-yl)sulfanylacetyl]-N-(2-phenylphenyl)pyrrolidine-2-carboxamide] here?
The value was “nearly fully blocked the response”.
